Our source for the Ki values is US11053242B2, “[9,10-dimethoxy-3-(2-methylpropyl)-1H,2H,3H,4H,6H,7H,11BH-pyrido-[2,1-a]isoquinolin-2-yl]methanol and compounds, compositions and methods relating thereto” (Neurocrine Biosciences, Inc., priority 2015, dated 2021).

A word on the Ki: it is the dissociation constant of the complex between target and ligand, obtained from inhibition or displacement. Low values mean a stronger hold on the target, high ones a looser hold on the target.

The target in this assay is VMAT2 (human platelet homogenate) (Homo sapiens (Human), UniProt Q05940). Kind of assay: Human VMAT2 Ki, slightly modified competition binding procedure (Table 11).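 Note: competition binding with 90 min incubation at 25 °C, after which filter-retained radioligand was measured by scintillation counting.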 The settings on record: 10 nM 3H-dihydrotetrabenazine.
Sequence of VMAT2 (human platelet homogenate) (Q05940 whole entry): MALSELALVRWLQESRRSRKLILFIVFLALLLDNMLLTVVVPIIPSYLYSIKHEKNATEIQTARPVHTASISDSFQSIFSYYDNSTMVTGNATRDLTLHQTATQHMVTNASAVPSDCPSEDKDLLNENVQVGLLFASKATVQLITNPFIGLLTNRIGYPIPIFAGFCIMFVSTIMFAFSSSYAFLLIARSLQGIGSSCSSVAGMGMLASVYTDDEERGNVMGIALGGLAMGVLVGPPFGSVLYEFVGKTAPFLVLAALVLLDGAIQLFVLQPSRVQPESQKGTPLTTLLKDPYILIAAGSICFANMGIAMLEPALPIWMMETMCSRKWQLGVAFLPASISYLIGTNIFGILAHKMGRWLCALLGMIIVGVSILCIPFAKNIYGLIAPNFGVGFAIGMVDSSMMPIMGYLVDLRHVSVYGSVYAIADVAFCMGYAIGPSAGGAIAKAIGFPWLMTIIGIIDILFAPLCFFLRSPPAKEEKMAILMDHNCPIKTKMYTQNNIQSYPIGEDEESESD

Description: Following incubation at 25° C. for 90 minutes, bound radioligand was collected by rapid filtration onto GF/B glass fiber filters using a Unifilter-96 Harvester (PerkinElmer). Filter plates were pre-treated with 0.1% polyethylenimine and allowed to dry overnight, and following harvesting the filter plates were washed with 800 d VMAT2 binding buffer. Bound radioligand was quantified by scintillation counting using a Topcount NXT (PerkinElmer).

`COc1cc2c(cc1OC)[C@H]1C[C@@H](COC(=O)N(C)C)[C@H](CC(C)C)CN1CC2` [Compound 5-29, [(2R,3S,11bR)-9,10-dimethoxy-3-(2-methylpropyl)-1H,2H,3H,4H,6H,7H,11bH-pyrido[2,1-a]isoquinolin-2-yl]methyl N,N-dimethylcarbamate] registered a Ki of 10 to 500 nM.
Regarding `CCCCCCOCC1CC2c3cc(OC)c(OC)cc3CCN2CC1CC(C)C` (stereo not drawn) [Compound 10-3, 2-[(hexyloxy)methyl]-9,10-dimethoxy-3-(2-methylpropyl)-1H,2H,3H,4H,6H,7H,11bH-pyrido[2,1-a]isoquinoline], the Ki is 10 to 500 nM.
As for `COc1cc2c(cc1OC)[C@H]1C[C@@H](COC(=O)C(C)(C)O)[C@H](CC(C)C)CN1CC2` [Compound 2-24, [(2R,3S,11bR)-9,10-dimethoxy-3-(2-methylpropyl)-1H,2H,3H,4H,6H,7H,11bH-pyrido[2,1-a]isoquinolin-2-yl]methyl 2-hydroxy-2-methylpropanoate], the figure is 10 to 500 nM.
Take `COc1cc2c(cc1OC)[C@H]1C[C@@H](COC(=O)N3CCO[C@@H](C)C3)[C@H](CC(C)C)CN1CC2` [Compound 5-44, [(2R,3S,11bR)-9,10-dimethoxy-3-(2-methylpropyl)-1H,2H,3H,4H,6H,7H,11bH-pyrido[2,1-a]isoquinolin-2-yl]methyl (2S)-2-methylmorpholine-4-carboxylate]: the Ki is under 10 nM.
As for `COc1cc2c(cc1OC)[C@H]1C[C@@H](COC(=O)[C@@H](N)Cc3ccccc3)[C@H](CC(C)C)CN1CC2` [Compound 4-2, [(2R,3S,11bR)-9,10-dimethoxy-3-(2-methylpropyl)-1H,2H,3H,4H,6H,7H,11bH-pyrido[2,1-a]isoquinolin-2-yl]methyl (2S)-2-amino-3-phenylpropanoate], the Ki was under 10 nM.
The molecule `COc1cc2c(cc1OC)[C@H]1C[C@@H](COC[C@@H]3CCNC3)[C@H](CC(C)C)CN1CC2` [Compound 10-2, (3R)-3-({[(2R,3S,11bR)-9,10-dimethoxy-3-(2-methylpropyl)-1H,2H,3H,4H,6H,7H,11bH-pyrido[2,1-a]isoquinolin-2-yl]methoxy}methyl)pyrrolidine] displayed a Ki of under 10 nM.
As to `COc1cc2c(cc1OC)[C@H]1C[C@@H](COC(=O)CCN3CCNCC3)[C@H](CC(C)C)CN1CC2` [Compound 4-37, [(2R,3S,11bR)-9,10-dimethoxy-3-(2-methylpropyl)-1H,2H,3H,4H,6H,7H,11bH-pyrido[2,1-a]isoquinolin-2-yl]methyl 3-(piperazin-1-yl)propanoate], the Ki is under 10 nM.
`COc1cc2c(cc1OC)[C@H]1C[C@@H](COC(=O)[C@@H]3CCN(Cc4ccccc4)C3)[C@H](CC(C)C)CN1CC2` [Compound 2-6, [(2R,3S,11bR)-9,10-dimethoxy-3-(2-methylpropyl)-1H,2H,3H,4H,6H,7H,11bH-pyrido[2,1-a]isoquinolin-2-yl]methyl (3R)-1-benzylpyrrolidine-3-carboxylate] came in with a Ki of under 10 nM.
On to `COc1cc2c(cc1OC)[C@H]1C[C@@H](COC(=O)CC3NC(=O)NC3=O)[C@H](CC(C)C)CN1CC2` (stereo partly drawn) [Compound 2-30, [(2R,3S,11bR)-9,10-dimethoxy-3-(2-methylpropyl)-1H,2H,3H,4H,6H,7H,11bH-pyrido[2,1-a]isoquinolin-2-yl]methyl 2-(2,5-dioxoimidazolidin-4-yl)acetate], for which the Ki is under 10 nM.
As for `COc1cc2c(cc1OC)[C@H]1C[C@@H](COC(=O)C3COCCN3)[C@H](CC(C)C)CN1CC2` (stereo partly drawn) [Compound 4-32, [(2R,3S,11bR)-9,10-dimethoxy-3-(2-methylpropyl)-1H,2H,3H,4H,6H,7H,11bH-pyrido[2,1-a]isoquinolin-2-yl]methyl morpholine-3-carboxylate], the figure is 10 to 500 nM; as for `COc1cc2c(cc1OC)[C@H]1C[C@@H](COC(=O)N[C@H](C)C(=O)O)[C@H](CC(C)C)CN1CC2` [Compound 5-45, (2R)-2-[({[(2R,3S,11bR)-9,10-dimethoxy-3-(2-methylpropyl)-1H,2H,3H,4H,6H,7H,11bH-pyrido[2,1-a]isoquinolin-2-yl]methoxy}carbonyl)amino]propanoic acid], over 500 nM; as for `COc1cc2c(cc1OC)[C@H]1C[C@@H](COC(=O)CCn3c(=O)[nH]c4ccccc4c3=O)[C@H](CC(C)C)CN1CC2` [Compound 2-3, [(2R,3S,11bR)-9,10-dimethoxy-3-(2-methylpropyl)-1H,2H,3H,4H,6H,7H,11bH-pyrido[2,1-a]isoquinolin-2-yl]methyl 3-(2,4-dioxo-1,2,3,4-tetrahydroquinazolin-3-yl)propanoate], under 10 nM.
`COc1cc2c(cc1OC)[C@H]1C[C@@H](COC(=O)[C@H](N)c3ccc(C(F)(F)F)cc3)[C@H](CC(C)C)CN1CC2` [Compound 4-30, [(2R,3S,11bR)-9,10-dimethoxy-3-(2-methylpropyl)-1H,2H,3H,4H,6H,7H,11bH-pyrido[2,1-a]isoquinolin-2-yl]methyl (2R)-2-amino-2-[4-(trifluoromethyl)phenyl]acetate] yielded a Ki of 10 to 500 nM.
The molecule `COC[C@@H]1C[C@@H]2c3cc(OC)c(OC)cc3CCN2C[C@H]1CC(C)C` [Compound 9-1, (2R,3S,11bR)-9,10-dimethoxy-2-(methoxymethyl)-3-(2-methylpropyl)-1H,2H,3H,4H,6H,7H,11bH-pyrido[2,1-a]isoquinoline] gave a Ki of under 10 nM.
Molecule `COc1cc2c(cc1OC)[C@H]1C[C@@H](COC(=O)N3CCN(C4CCCCC4)CC3)[C@H](CC(C)C)CN1CC2` [Compound 5-18, [(2R,3S,11bR)-9,10-dimethoxy-3-(2-methylpropyl)-1H,2H,3H,4H,6H,7H,11bH-pyrido[2,1-a]isoquinolin-2-yl]methyl 4-cyclohexylpiperazine-1-carboxylate] showed a Ki of under 10 nM.
As for `COc1cc2c(cc1OC)[C@H]1C[C@@H](COC(=O)CCC(=O)N(C)C)[C@H](CC(C)C)CN1CC2` [Compound 2-4, [(2R,3S,11bR)-9,10-dimethoxy-3-(2-methylpropyl)-1H,2H,3H,4H,6H,7H,11bH-pyrido[2,1-a]isoquinolin-2-yl]methyl 3-(dimethylcarbamoyl)propanoate], the figure is under 10 nM.
Molecule `COc1cc2c(cc1OC)[C@H]1C[C@@H](COC(=O)CCCN(C)C)[C@H](CC(C)C)CN1CC2` [Compound 2-36, [(2R,3S,11bR)-9,10-dimethoxy-3-(2-methylpropyl)-1H,2H,3H,4H,6H,7H,11bH-pyrido[2,1-a]isoquinolin-2-yl]methyl 4-(dimethylamino)butanoate] showed a Ki of under 10 nM.
The molecule `COc1cc2c(cc1OC)[C@H]1C[C@@H](COC(=O)CC3CCCCN3)[C@H](CC(C)C)CN1CC2` (stereo partly drawn) [Compound 4-34, [(2R,3S,11bR)-9,10-dimethoxy-3-(2-methylpropyl)-1H,2H,3H,4H,6H,7H,11bH-pyrido[2,1-a]isoquinolin-2-yl]methyl 2-(piperidin-2-yl)acetate] came in with a Ki of under 10 nM.
In turn, `COc1cc2c(cc1OC)[C@H]1C[C@@H](COC(=O)CC(N)=O)[C@H](CC(C)C)CN1CC2` [Compound 2-9, [(2R,3S,11bR)-9,10-dimethoxy-3-(2-methylpropyl)-1H,2H,3H,4H,6H,7H,11bH-pyrido[2,1-a]isoquinolin-2-yl]methyl 2-carbamoylacetate] had a Ki of under 10 nM.
`COc1cc2c(cc1OC)[C@H]1C[C@@H](COC(=O)C[C@@H]3NC(=O)NC3=O)[C@H](CC(C)C)CN1CC2` [Compound 2-33, [(2R,3S,11bR)-9,10-dimethoxy-3-(2-methylpropyl)-1H,2H,3H,4H,6H,7H,11bH-pyrido[2,1-a]isoquinolin-2-yl]methyl 2-[(4S)-2,5-dioxoimidazolidin-4-yl]acetate] registered a Ki of 10 to 500 nM.
The molecule `COc1cc2c(cc1OC)[C@H]1C[C@@H](COC(=O)C3CCCCC3C(=O)O)[C@H](CC(C)C)CN1CC2` (stereo partly drawn) [Compound 3-5, 2-({[(2R,3S,11bR)-9,10-dimethoxy-3-(2-methylpropyl)-1H,2H,3H,4H,6H,7H,11bH-pyrido[2,1-a]isoquinolin-2-yl]methoxy}carbonyl)cyclohexane-1-carboxylic acid] returned a Ki of 10 to 500 nM.
Molecule `COc1cc2c(cc1OC)[C@H]1C[C@@H](COC(=O)N(C)C(C)C(=O)O)[C@H](CC(C)C)CN1CC2` (stereo partly drawn) [Compound 5-28, 2-[({[(2R,3S,11bR)-9,10-dimethoxy-3-(2-methylpropyl)-1H,2H,3H,4H,6H,7H,11bH-pyrido[2,l-a]isoquinolin-2-yl]methoxy}carbonyl)(methyl)amino]propanoic acid] came in with a Ki of over 500 nM.
`COc1cc2c(cc1OC)[C@H]1C[C@@H](COCC3CCNCC3)[C@H](CC(C)C)CN1CC2` [Compound 10-5, 4-({[(2R,3S,11bR)-9,10-dimethoxy-3-(2-methylpropyl)-1H,2H,3H,4H,6H,7H,11bH-pyrido[2,1-a]isoquinolin-2-yl]methoxy}methyl)piperidine] returned a Ki of 10 to 500 nM.
`COc1cc2c(cc1OC)[C@H]1C[C@@H](COC(=O)CC(C)(C)n3cccc3)[C@H](CC(C)C)CN1CC2` [Compound 2-28, [(2R,3S,11bR)-9,10-dimethoxy-3-(2-methylpropyl)-1H,2H,3H,4H,6H,7H,11bH-pyrido[2,1-a]isoquinolin-2-yl]methyl 3-methyl-3-(1H-pyrrol-1-yl)butanoate] gave a Ki of 10 to 500 nM.
On to `COc1cc2c(cc1OC)[C@H]1C[C@@H](COC(=O)CCN3CCOCC3)[C@H](CC(C)C)CN1CC2` [Compound 2-2, [(2R,3S,11bR)-9,10-dimethoxy-3-(2-methylpropyl)-1H,2H,3H,4H,6H,7H,11bH-pyrido[2,1-a]isoquinolin-2-yl]methyl 3-(morpholin-4-yl)propanoate], for which the Ki is under 10 nM.
As for `COc1cc2c(cc1OC)[C@H]1C[C@@H](COC[C@H]3CCCN3)[C@H](CC(C)C)CN1CC2` [Compound 10-7, (2R)-2-({[(2R,3S,11bR)-9,10-dimethoxy-3-(2-methylpropyl)-1H,2H,3H,4H,6H,7H,11bH-pyrido[2,1-a]isoquinolin-2-yl]methoxy}methyl)pyrrolidine], the figure is under 10 nM.
The same measure for `COc1cc2c(cc1OC)[C@H]1C[C@@H](COC(=O)N3CCN(C)C[C@H]3C)[C@H](CC(C)C)CN1CC2` [Compound 5-50, [(2R,3S,11bR)-9,10-dimethoxy-3-(2-methylpropyl)-1H,2H,3H,4H,6H,7H,11bH-pyrido[2,1-a]isoquinolin-2-yl]methyl (2R)-2,4-dimethylpiperazine-1-carboxylate]: under 10 nM.
